US4470974A, “Gastric cytoprotection with L-363,586” (Merck & Co., Inc., priority 1983, dated 1984)
Like-named read-outs stand apart in the source and are kept apart here.

Tests used:
[1] = tested on: S.D. rat; format: in vivo; conditions: for dose at which significant ulcer reduction was observed: administered simultaneously with indomethacin; for Gastric Ulcers % Inhibition / Gastric Ulcers Mean Score + SEM (number of ulcers): 4 hours after indomethacin
Description: Indomethacin, 20 mg/kg p.o., was used to induce ulcers in the 24 hr. fasted S.D. rat. […]
The number of ulcers for twenty-six (i.p.) and fifteen (p.o.) aqueous vehicle-dosed control animals in the indomethacin ulcer assay were so close, (23.0±2.2 S.E.M. i.p.; 18.1±1.6 S.E.M. p.o.), that the data from each experimental dosage group were pooled for group statistical analysis by way of Student's "t" test. FIG. 1 indicates the number of ulcers resulting from indomethacin at 20 mg/kg p.o., when either 0.5% (wt.) aqueous methylcellulose vehicle or L-363,586 was co-administered. The bold-faced numbers at the bottom of each column represent the number of rats used for each value, while the dose, in mg/kg, is noted at the top of each column. […] Higher i.p. doses, from 0.0016 to 0.1 mg/kg, thereafter, inhibited ulcer formation by 80% to 94%.

[2] = tested on: Sprague-Dawley (S.D.) rats; format: in vivo, rat; conditions: for Gastric Lesions % Inhibition / Gastric Lesions Mean Score + SEM: 60 minutes after ethanol
Description: Twenty-four hr. fasted Sprague-Dawley (S.D.) rats were perorally (p.o.) dosed with 1.0 ml absolute ethanol. […] One hour later, the animals were sacrificed and stomach mucosae were examined for resulting lesions.

[3] = 0.01 mg/kg p.o. simultaneously with indomethacin 20 mg/kg p.o.
[4] = 0.1 mg/kg p.o. simultaneously with indomethacin 20 mg/kg p.o.
[5] = 1.0 mg/kg p.o. simultaneously with indomethacin 20 mg/kg p.o.
[6] = 0.22 mg/kg p.o. coadministered with 1.0 ml 100% ethanol
[7] = 0.44 mg/kg p.o. coadministered with 1.0 ml 100% ethanol
[8] = 1.0 mg/kg p.o. coadministered with 1.0 ml 100% ethanol
[9] = 2.2 mg/kg p.o. coadministered with 1.0 ml 100% ethanol
[10] = 4.4 mg/kg p.o. coadministered with 1.0 ml 100% ethanol
[11] = 0.0001 mg/kg i.p. immediately following 20 mg/kg p.o. indomethacin
[12] = 0.001 mg/kg i.p. immediately following 20 mg/kg p.o. indomethacin
[13] = 0.01 mg/kg i.p. immediately following 20 mg/kg p.o. indomethacin
[14] = 0.1 mg/kg i.p. immediately following 20 mg/kg p.o. indomethacin

## CC(C)[C@@H]1NC(=O)[C@H](CCCCN)NC(=O)[C@@H](Cc2c[nH]c3ccccc23)NC(=O)[C@H](Cc2ccc(O)cc2)NC(=O)[C@H](C)N(C)C(=O)[C@H](Cc2ccccc2)NC1=O [L-363,586, cyclo-(N-methyl-Ala-Tyr-d-Trp-Lys-Val-Phe)]
[1]; 0.00001 mg/kg (10 nanograms/kg) i.p. immediately following indomethacin 20 mg/kg p.o.
  reduction of the number of ulcers: 58.3%
[1]; [3]
  % Inhibition of Gastric Ulcers: -2.8%
  Number of Gastric Ulcers M + S.E.M.: 18.6 ± 4.4
[1]; [4]
  % Inhibition of Gastric Ulcers: 50.3%
  Number of Gastric Ulcers M + S.E.M.: 9.0 ± 1.9
[1]; [5]
  % Inhibition of Gastric Ulcers: 83.4%
  Number of Gastric Ulcers M + S.E.M.: 3.0 ± 1.3
[1]; administered either p.o. or i.p.
  reduction in gastric mucosal ulcers: dose-dependent reduction
[1]; i.p.
  dose at which significant ulcer reduction was observed: 10 nanograms per kilogram
[1]; increasing log-dose amounts from 0.00001 to 0.001 mg/kg i.p., indomethacin 20 mg/kg p.o.
  further reduction of damage with increasing dose: did not effectively reduce the damage any further
[1]; p.o.
  dose at which significant ulcer reduction was observed: 0.1 mg/kg
[2]; [6]
  Gastric Lesions % Inhibition: 8.0%
  Gastric Lesions Mean Score + SEM: 2.3 ± 0.3
[2]; [7]
  Gastric Lesions % Inhibition: 28.0%
  Gastric Lesions Mean Score + SEM: 1.8 ± 0.4
[2]; [8]
  Gastric Lesions % Inhibition: 28.0%
  Gastric Lesions Mean Score + SEM: 1.8 ± 0.3
[2]; [9]
  Gastric Lesions % Inhibition: 40.0%
  Gastric Lesions Mean Score + SEM: 1.5 ± 0.4
[2]; [10]
  Gastric Lesions % Inhibition: 60.0%
  Gastric Lesions Mean Score + SEM: 1.0 ± 0.3
[2]; 0.037 to 3.0 mg/kg p.o. fifteen min. prior to 1.0 ml absolute ethanol, examined one hour later
  prophylactic effect on ethanol-induced lesions: No prophylactic effect
[2]; p.o. simultaneously with 100% ethanol, lowest such dose
  dose significantly effective in protecting against ethanol-induced lesions: 0.44 mg/kg

## C[C@H](N)C(=O)NCC(=O)N[C@H]1CSSC[C@@H](C(=O)O)NC(=O)[C@H](CO)NC(=O)[C@H]([C@@H](C)O)NC(=O)[C@H](Cc2ccccc2)NC(=O)[C@H]([C@@H](C)O)NC(=O)[C@H](CCCCN)NC(=O)[C@H](Cc2c[nH]c3ccccc23)NC(=O)[C@H](Cc2ccccc2)NC(=O)[C@H](Cc2ccccc2)NC(=O)[C@H](CC(N)=O)NC(=O)[C@H](CCCCN)NC1=O [somatostatin, reference compound]
[1]; [11]
  Gastric Ulcers % Inhibition: -9.3%
  Gastric Ulcers Mean Score + SEM (number of ulcers): 22.4 ± 3.8
[1]; [12]
  Gastric Ulcers % Inhibition: 2.4%
  Gastric Ulcers Mean Score + SEM (number of ulcers): 21.0 ± 2.4
[1]; [13]
  Gastric Ulcers % Inhibition: 16.1%
  Gastric Ulcers Mean Score + SEM (number of ulcers): 17.2 ± 2.3
[1]; [14]
  Gastric Ulcers % Inhibition: 5.9%
  Gastric Ulcers Mean Score + SEM (number of ulcers): 19.3 ± 3.3
[1]; 0.5 mg/kg i.p. immediately following 20 mg/kg p.o. indomethacin
  Gastric Ulcers Mean Score + SEM (number of ulcers): 7.7 ± 3.6
[1]; 1.0 mg/kg i.p. immediately following 20 mg/kg p.o. indomethacin
  Gastric Ulcers Mean Score + SEM (number of ulcers): 11.0 ± 3.0
[1]; doses up to 0.1 mg/kg i.p.
  effectiveness in the peroral (p.o.) indomethacin-induced ulcer assay: not effective
